Data taken from patent US10561676B2, “Method for treating cancer using dual antagonists of CXCR1 and CXCR2” (Syntrix Biosystems, Inc., priority 2018, dated 2020).

Key:
neutrophils = experiment: Murine air-pouch model of inflammation; format: in vivo; conditions: depending on the dose given
[1] = Stability in human liver microsomes (NADPH-dependent); format: in vitro ADME; conditions: 37° C., NADPH-dependent
Protocol: The compounds were incubated in duplicate with human liver microsomes at 37° C. The reaction contained microsomal protein in 100 mM potassium phosphate, 2 mM NADPH, 3 mM MgCl2, pH 7.4. A control was run for each compound omitting NADPH to detect NADPH-independent degradation. An aliquot was removed from each experimental and control reaction at 0, 10, 20, 30, and 60 minutes and mixed with an equal volume of ice-cold Stop Solution (0.3% acetic acid in acetonitrile containing haloperidol, diclofenac, or other internal standard). Stopped reactions were incubated for at least ten minutes at −20° C., and an additional volume of water was added. The samples were centrifuged to remove precipitated protein, and the supernatants were analyzed by LCMS/MS to quantitate the remaining compound. Data were converted to percent remaining by dividing by the time zero concentration value. Data were fit to a first-order decay model to determine half-life. Intrinsic clearance was calculated from the half-life and the protein concentrations: CLint=ln(2)/(t½[microsomal protein]). […] More surprising is that eliminating the ring nitrogen in SX-517 yielded a half-life even larger than that of SX-682. The results as a whole led to no SAR predictive of the surprising stability of SX-682.

[2] = Stability in human plasma; format: in vitro ADME; conditions: for t½: 5 μM, 37° C., LC-MS/MS detection
Protocol: The in vitro stability of SX-682 and the congeners of Metabolic Stability Example 1 (FIG. 6) were further studied in human plasma. The reactions were initiated by the addition of 5 μl of a 500 μM DMSO stock solution to 495 μl of preheated plasma solution to yield a final concentration of 5 μM. The assays were performed in a heat block at 37° C. and conducted in duplicate. Samples (50 μl) were taken at 0, 30, 60, 120, 240 min and added to 150 μL acetonitrile in order to deproteinize the plasma. The samples were subjected to vortex mixing for 1 min and then centrifugation for 15 min at 14,000 rpm. The clear supernatants were analyzed by LC-MS.
The in vitro plasma half-life (t½) was calculated using the expression t½=ln(2)/b where b is the slope found in the linear fit of the natural logarithm of the fraction remaining of the parent compound vs. incubation time.

Sprague-Dawley rats = experiment: Ozone rat model of pulmonary inflammation (neutrophil influx into BALF); format: in vivo; conditions: 1 mg/kg i.v. once, 1 ppm ozone 4 hours, BALF at 24 hours
Protocol: SX-682 was assayed in an in vivo rat model of pulmonary inflammation. Activity in this model of pulmonary inflammation provides evidence that supports the use of SX-682 in the treatment of a number of pulmonary inflammatory diseases, including chronic obstructive pulmonary disease (COPD) and bronchopulmonary dysplasia (BPD). In this experiment, Sprague-Dawley rats (n=4 per cohort) were dosed intravenously only once at t=0 with either vehicle control (dimethylformamide/PEG400/saline, 40:40:20), positive inhibitor control (SX-576, 1 mg/kg) or the test compound (SX-682, 1 mg/kg). The rats were then placed in air (negative exposure group; vehicle control only) or 1 ppm ozone (positive exposure group; vehicle control, positive inhibitor control SX-576, and test compound SX-682) for 4 hours. The rats were then sacrificed at t=24 hours, and the bronchoalveolar lavage fluid (BALF) was collected. The cells were spun down, stained with Wright-Giemsa and counted. In the negative exposure group, no neutrophils were observed when stained. In the ozone exposed rats treated with vehicle however, there was a brisk influx of neutrophils of approximately 14,000 per mL of BALF (FIG. 5).

[3] = test system: C3Tag mouse model of breast cancer; experiment: C3Tag mouse model of breast cancer; format: in vivo; conditions: SX-682 10 mg/day/mouse oral; carboplatin 50 mg/kg weekly i.p.; vehicle 18 days
Excerpt: The C31-T-antigen (C3Tag) mouse model is a validated model of human triple-negative basal cell breast cancer as shown by gene expression analysis (Maroulakou, 1994, Proc Natl Acad Sci, 91:11236-40, herein incorporated by reference). The expressed large T-antigen binds and inactivates the RB and p53 tumor suppressor genes, explaining why this model faithfully recapitulates human basal breast cancer, which also harbors RB and p53 inactivation. This model also has frequent K-Ras amplification and infrequent Ras mutations. Treatment regimens were started following tumor manifestation. SX-682 was given orally via medicated feed, at an approximate dose of 10 mg/day/mouse. CP was administered once weekly via intraperitoneal injection at a dose of 50 mg/kg.

t½, half-life [1] | t½ [2] | reduction in plasma half-life ([2]; relative to SX-682/SX-576) | SMILES | activity on neutrophils (neutrophils) | influx of neutrophils into the lungs (BALF) vs vehicle (Sprague-Dawley rats) | median survival, single agent [3]
6.75 h | 1.88 h | 5 fold | O=C(Nc1ccc(F)cc1)c1ccc(SCc2ccccc2B(O)O)nc1 [SX-517] | both inhibitory and agonist activity on neutrophils were achieved |  | 
0.833 h | 8.88 h |  | O=C(Nc1ccc(F)cc1)c1ccc(SCc2cc(OC(F)(F)F)ccc2B(O)O)nc1 [SX-576] | both inhibitory and agonist activity on neutrophils were achieved | significantly decreased the influx of neutrophils | 
 |  |  | N.N.O=C([O-])C1(C(=O)[O-])CCC1.[Pt+2] [carboplatin, reference compound] |  |  | 28 days
